The values below come from patent US11440923B2, “Substituted macrocyclic indole derivatives” (Bayer Aktiengesellschaft, priority 2017, dated 2022).

Structures are written as SMILES. Counter-ions that a name gives are not always drawn. Like-named read-outs stand apart in the source and are kept apart here. Some results are limits rather than exact numbers.

What all share (type): cell-based
Data set [1] relates to SUDHL10 cells. The data set is described as follows: Induction of caspase-3/7 activity in SUDHL10 cells (Assay 4). Summed up:
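Caspase-3/7 activity measured in DLBCL lines after 3 h compound exposure at 37 °C, following overnight plating; Caspase-Glo 3/7 luminescence read after 1 h at 37 °C. Medium-only background subtracted, values normalized to mean of DMSO-treated cells.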

Data set [2] concerns SUDHL10 cells. The data set is described as follows: Induction of cytotoxicity in SUDHL10 cells (Assay 6). To be noted: 5 h, CellTiter-Glo, read-out: Cytotox SUDHL10 IC50 (median). A digest of the protocol:
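Overnight seeding, 37 °C; 5 h compound exposure; CellTiter-Glo, 15 min RT shake; luminescence read. No-cell medium control.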

In a further data set the test system is SUDHL5 cells. The data set is described as follows: Antiproliferation assay SUDHL5 (Assay 7). As to conditions: 72 h, CellTiter-Glo, read-out: Antiproli SUDHL5 IC50 (median). Summed up:
(§1)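 Luminescent viability signal (CellTiter-Glo) after 72 h of treatment served as read-out. IC50 values were derived with day 0 luminescence as CI and DMSO wells as C0.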
(In general: Cellular ATP, detected with luciferase, serves as a proxy for viable cell number.)

The next data set has as its system AMO-1 cells. Description: Antiproliferation assay AMO-1 (Assay 7). A digest of the protocol:
as §1

[3] abbreviates: Homo sapiens, SU-DHL10, 3 h, caspase-3/7 induction, 3 h, read-out: Caspase SUDHL10 EC50 (median).
Setting [4] is: Homo sapiens, AMO1, 72 h, 72 h, CellTiter-Glo, read-out: Antiproli AMO-1 IC50 median.
The mark [5] stands for this setting: read-out: Caspase SUDHL10 EC50 (median), caspase-3/7 induction, 3 h.
The mark [6] stands for this setting: read-out: Antiproli AMO-1 IC50 median, 72 h, CellTiter-Glo.

Turning to `Cc1c2c(nn1C)C(C)OCCCCn1c(C(=O)O)c(CCCOc3cccc4ccccc34)c3cccc-2c31` (racemic) [Example 1, (rac)-2,3,15-trimethyl-7-[3-(naphthalen-1-yloxy)propyl]-2,10,11,12,13,15-hexahydropyrazolo[4′,3′:9,10][1,6]oxazacycloundecino[8,7,6-hi]indole-8-carboxylic Acid (Mixture of Stereoisomers)], the EC50 in the data set with SUDHL10 cells [1] (setting [3]) amounted to 5.9 µM. For the same compound, the IC50 (in general, the concentration needed to halve the response being measured) with SUDHL10 cells [2] (Homo sapiens, SU-DHL10, 5 h) came to 6.6 µM; with SUDHL5 cells (Homo sapiens, SU-DHL-5, 72 h) it was 1.5 µM.
In the same order, the values of `Cc1c2c(nn1C)C(CCN1CCOCC1)OCCCCn1c(C(=O)O)c(CCCOc3cccc4ccccc34)c3ccc(F)c-2c31` (racemic) [Example 7, (rac)-4-fluoro-2,3-dimethyl-15-[2-(morpholin-4-yl)ethyl]-7-[3-(naphthalen-1-yloxy)propyl]-2,10,11,12,13,15-hexahydropyrazolo[4′,3′:9,10][1,6]oxazacycloundecino[8,7,6-hi]indole-8-carboxylic Acid] are 0.36 µM, 0.38 µM and 0.2 µM.
Regarding `CCc1c2c(nn1C)C(C1CC1)OCCCCn1c(C(=O)O)c(CCCOc3cccc4cc(F)ccc34)c3ccc(Cl)c-2c31` (racemic) [Example 38, (rac)-4-chloro-(15-rac)-cyclopropyl-3-ethyl-7-{3-[(6-fluoronaphthalen-1-yl)oxy]propyl}-2-methyl-2,10,11,12,13,15-hexahydropyrazolo[4′,3′:9,10][1,6]oxazacycloundecino[8,7,6-hi]indole-8-carboxylic Acid], in the data set with SUDHL10 cells [1] (setting [3]), the EC50 was 5.3 µM. Besides, the IC50 with SUDHL10 cells [2] (Homo sapiens, SU-DHL10, 5 h) was determined as 6.3 µM; with AMO-1 cells (setting [4]), 5.01 µM.
As to `CCc1c2c(nn1C)C(CCN1CCN(C)CC1)OCCCCn1c(C(=O)O)c(CCCOc3cccc4cc(F)ccc34)c3ccc(Cl)c-2c31` (racemic) [Example 68, 4-chloro-3-ethyl-7-{3-[(6-fluoronaphthalen-1-yl)oxy]propyl}-2-methyl-(15-rac)-[2-(4-methylpiperazin-1-yl)ethyl]-2,10,11,12,13,15-hexahydropyrazolo[4′,3′:9,10][1,6]oxazacycloundecino[8,7,6-hi]indole-8-carboxylic Acid—N-ethylethanamine Salt (Mixture 1 of Stereoisomers)], in the data set with SUDHL10 cells [1] (setting [5]), the EC50 is 0.082 µM. Besides, the figures for the concentration for half-maximal inhibition (IC50) in the data set with SUDHL10 cells [2] and in the data set with AMO-1 cells (setting [6]) were 0.15 µM and 0.772 µM, respectively.
In the same order, the values of `CCc1c2c(nn1C)C(CCN1CCN(C)CC1)OCCCCn1c(C(=O)O)c(CCCOc3cccc4cc(F)ccc34)c3ccc(Cl)c-2c31` (racemic) [Example 71, (rac)-4-chloro-3-ethyl-7-{3-[(6-fluoronaphthalen-1-yl)oxy]propyl}-2-methyl-(15-rac)-[2-(4-methylpiperazin-1-yl)ethyl]-2,10,11,12,13,15-hexahydropyrazolo[4′,3′:9,10][1,6]oxazacycloundecino[8,7,6-hi]indole-8-carboxylic Acid—N-ethylethanamine Salt (Mixture 2 Od Stereoisomers)] are 0.041 µM, 0.036 µM and 0.209 µM.
Regarding `Cc1c2c(nn1C)C(CCN1CCOCC1)OCCCCn1c(C(=O)O)c(CCCOc3cccc4cc(F)ccc34)c3ccc(Cl)c-2c31` (single isomer, unassigned; enantiomer 1) [Example 17, 4-chloro-7-{3-[(6-fluoronaphthalen-1-yl)oxy]propyl}-2,3-dimethyl-15-[2-(morpholin-4-yl)ethyl]-2,10,11,12,13,15-hexahydropyrazolo[4′,3′:9,10][1,6]oxazacycloundecino[8,7,6-hi]indole-8-carboxylic Acid—N-ethylethanamine (Enantiomer 1)], the EC50 in the data set with SUDHL10 cells [1] (Homo sapiens, SU-DHL10, 3 h, read-out: Caspase SUDHL10 EC50 (median), caspase-3/7 induction, 3 h) stood at 0.0097 µM. Further, the IC50 was 0.0093 µM with SUDHL10 cells [2] (Homo sapiens, SU-DHL10, 5 h) and 0.0282 µM in the data set on AMO-1 cells (Homo sapiens, AMO1, 72 h, read-out: Antiproli AMO-1 IC50 median, 72 h, CellTiter-Glo).
Turning to `CCC1OCCCCn2c(C(=O)O)c(CCCOc3cccc4ccccc34)c3ccc(Cl)c(c32)-c2c1nn(C)c2C` (single isomer, unassigned; enantiomer 1) [Example 29, (+)-4-chloro-15-ethyl-2,3-dimethyl-7-{3-[(naphthalen-1-yl)oxy]propyl}-2,10,11,12,13,15-hexahydropyrazolo[4′,3′:9,10][1,6]oxazacycloundecino[8,7,6-hi]indole-8-carboxylic Acid—N-ethylethanamine Salt (Enantiomer 1)], the EC50 with SUDHL10 cells [1] (setting [5]) was 3.7 µM. Also, the IC50 amounted to 3.9 µM in the data set on SUDHL10 cells [2] and 4.35 µM in the data set on AMO-1 cells (setting [6]).
In the same order, the values of `CCc1c2c(nn1C)C(C(F)(F)F)OCCCCn1c(C(=O)O)c(CCCOc3cccc4ccccc34)c3ccc(Cl)c-2c31` (single isomer, unassigned; enantiomer 1) [Example 33, (+)-4-chloro-3-ethyl-2-methyl-7-{3-[(naphthalen-1-yl)oxy]propyl}-15-(trifluoromethyl)-2,10,11,12,13,15-hexahydropyrazolo[4′,3′:9,10][1,6]oxazacycloundecino[8,7,6-hi]indole-8-carboxylic Acid—N-ethylethanamine Salt (Enantiomer 1)] are 4.5 µM, 3.7 µM and 6.96 µM.
As for `Cc1c2c(nn1C)C(CCN1CCOCC1)OCCCCn1c(C(=O)O)c(CCCOc3cccc4ccccc34)c3ccc(F)c-2c31` (single isomer, unassigned; enantiomer 2) [Example 9, 4-fluoro-2,3-dimethyl-15-[2-(morpholin-4-yl)ethyl]-7-{3-[(naphthalen-1-yl)oxy]propyl}-2,10,11,12,13,15-hexahydropyrazolo[4′,3′:9,10][1,6]oxazacycloundecino[8,7,6-hi]indole-8-carboxylic Acid—N-ethylethanamine Salt (Enantiomer 2)], the EC50 in the data set on SUDHL10 cells [1] (setting [5]) was 12 µM. The concentration for half-maximal inhibition (IC50) in the data set on SUDHL10 cells [2] stood at 16 µM; in the data set with SUDHL5 cells, 4.3 µM.
As for `Cc1c2c(nn1C)C(CCN1CCOCC1)OCCCCn1c(C(=O)O)c(CCCOc3cccc4cc(F)ccc34)c3ccc(Cl)c-2c31` (single isomer, unassigned; enantiomer 2) [Example 18, 4-chloro-7-{3-[(6-fluoronaphthalen-1-yl)oxy]propyl}-2,3-dimethyl-15-[2-(morpholin-4-yl)ethyl]-2,10,11,12,13,15-hexahydropyrazolo[4′,3′:9,10][1,6]oxazacycloundecino[8,7,6-hi]indole-8-carboxylic Acid (Enantiomer 2)], the EC50 in the data set with SUDHL10 cells [1] (setting [3]) was determined as 2.3 µM. For the same compound, the half-maximal inhibitory concentration (IC50) worked out at 0.77 µM in the data set with SUDHL10 cells [2] (Homo sapiens, SU-DHL10, 5 h) and 2.37 µM in the data set with AMO-1 cells (setting [4]).
Regarding `CCC1OCCCCn2c(C(=O)O)c(CCCOc3cccc4ccccc34)c3ccc(Cl)c(c32)-c2c1nn(C)c2C` (single isomer, unassigned; enantiomer 2) [Example 30, (−)-4-chloro-15-ethyl-2,3-dimethyl-7-{3-[(naphthalen-1-yl)oxy]propyl}-2,10,11,12,13,15-hexahydropyrazolo[4′,3′:9,10][1,6]oxazacycloundecino[8,7,6-hi]indole-8-carboxylic Acid—N-ethylethanamine Salt (Enantiomer 2)], the EC50 with SUDHL10 cells [1] (setting [5]) was over 33 µM. Besides, the half-maximal inhibitory concentration (IC50) with SUDHL10 cells [2] is over 33 µM; in the data set with AMO-1 cells (setting [6]), 31.6 µM.
In the case of `Cc1c2c(nn1C)C(C1CC1)OCCCCn1c(C(=O)O)c(CCCOc3cccc4ccccc34)c3ccc(Cl)c-2c31` (single isomer, unassigned; enantiomer 2) [Example 36, (−)-4-chloro-15-cyclopropyl-2,3-dimethyl-7-{3-[(naphthalen-1-yl)oxy]propyl}-2,10,11,12,13,15-hexahydropyrazolo[4′,3′:9,10][1,6]oxazacycloundecino[8,7,6-hi]indole-8-carboxylic Acid N-ethylethanamine Salt (Enantiomer 2)], the EC50 in the data set with SUDHL10 cells [1] (setting [5]) amounted to 27 µM. The figures for the IC50 with SUDHL10 cells [2] and with AMO-1 cells (setting [6]) were 27 µM and 15.8 µM, respectively.
`CCc1c2c(nn1C)C(CCOC)OCCCCn1c(C(=O)O)c(CCCOc3cccc4cc(F)ccc34)c3ccc(Cl)c-2c31` (single isomer, unassigned; enantiomer 2) [Example 43, (−)-4-chloro-3-ethyl-7-{3-[(6-fluoronaphthalen-1-yl)oxy]propyl}-15-(2-methoxyethyl)-2-methyl-2,10,11,12,13,15-hexahydropyrazolo[4′,3′:9,10][1,6]oxazacycloundecino[8,7,6-hi]indole-8-carboxylic Acid—N-ethylethanamine Salt (Enantiomer 2)]: the EC50 with SUDHL10 cells [1] (setting [5]) worked out at 24 µM. In addition, the 50% inhibitory concentration (IC50) in the data set on SUDHL10 cells [2] came to 19 µM; in the data set with AMO-1 cells (setting [6]), 20 µM.
Consider `CCc1c2c(nn1C)C(CCO)OCCCCn1c(C(=O)O)c(CCCOc3cccc4cc(F)ccc34)c3ccc(Cl)c-2c31` (single isomer, unassigned; enantiomer 2) [Example 46, (−)-4-chloro-3-ethyl-7-{3-[(6-fluoronaphthalen-1-yl)oxy]propyl}-15-(2-hydroxyethyl)-2-methyl-2,10,11,12,13,15-hexahydropyrazolo[4′,3′:9,10][1,6]oxazacycloundecino[8,7,6-hi]indole-8-carboxylic Acid (Enantiomer 2)], for which the EC50 in the data set with SUDHL10 cells [1] (caspase-3/7 induction, 3 h, read-out: Caspase SUDHL10 EC50 (median)) worked out at 4 µM. For the same compound, the IC50 was 5.5 µM in the data set on SUDHL10 cells [2] and 8.65 µM in the data set with AMO-1 cells (72 h, CellTiter-Glo, read-out: Antiproli AMO-1 IC50 median).
